target: T1, PDE 10A (Homo sapiens, UniProt Q9Y233); experiment: Inhibition of PDE 10A (in vitro enzyme inhibition test, [3H]cAMP scintillation proximity assay); format: biochemical; conditions: recombinant full-length PDE 10A expressed in Sf9 insect cells; substrate [5',8-3H] cAMP; 60 min at 20° C.
T1 construct: is expressed recombinantly in full length in Sf9 insect cells; made in house; host or cells: Sf9 insect cells, Bac-to-Bac baculovirus expression system
Description: 48 h after infection, the cells are harvested and suspended in 20 ml (per 1 l of culture) of lysis buffer (50 mM tris HCl, pH 7.4, 50 mM NaCl, 1 mM MgCl2, 1.5 mM EDTA, 10% glycerol plus 20 μl of Protease Inhibitor Cocktail Set III [CalBiochem, La Jolla, Calif. USA]). The cells are treated with ultrasound at 4° C. for 1 minute and subsequently centrifuged at 10 000 rpm for 30 minutes at 4° C. The supernatant (PDE 10A preparation) was collected and stored at −20° C.
The test substances are dissolved in 100% DMSO for the determination of their in vitro action on PDE 10A and serially diluted. […] 2 μl of the diluted substance solutions in each case are introduced into the hollows of microtiter plates (Isoplate; Wallac Inc., Atlanta, Ga.). Subsequently, 50 μl of a dilution of the PDE 10A preparation described above are added. The dilution of the PDE 10A preparation is chosen such that during the later incubation less than 70% of the substrate is reacted (typical dilution: 1:10 000; dilution buffer: 50 mM tris/HCl pH 7.5, 8.3 mM MgCl2, 1.7 mM EDTA, 0.2% BSA). The substrate, [5′,8-^3H] adenosine 3′,5′-cyclic phosphate (1 μCi/μl; Amersham Pharmacia Biotech., Piscataway, N.J.) is diluted 1:2000 with assay buffer (50 mM tris/HCl pH 7.5, 8.3 mM MgCl2, 1.7 mM EDTA) to a concentration of 0.0005 μCi/μl. The enzyme reaction is finally started by addition of 50 μl (0.025 μCi) of the diluted substrate. The test batches are incubated for 60 min at 20° C. and the reaction is stopped by addition of 25 μl of a suspension containing 18 mg/ml of Yttrium Scintillation Proximity Beads (Amersham Pharmacia Biotech., Piscataway, N.J.). The microtiter plates are sealed using a film and allowed to stand for 60 min at 20° C. Subsequently, the plates are measured for 30 s per hollow in a Microbeta scintillation counter (Wallac Inc., Atlanta, Ga.). IC50 values are determined by means of graphic plotting of the substance concentration against the percentage inhibition.

T1 sequence (Q9Y233 1-779 isoform Q9Y233-1): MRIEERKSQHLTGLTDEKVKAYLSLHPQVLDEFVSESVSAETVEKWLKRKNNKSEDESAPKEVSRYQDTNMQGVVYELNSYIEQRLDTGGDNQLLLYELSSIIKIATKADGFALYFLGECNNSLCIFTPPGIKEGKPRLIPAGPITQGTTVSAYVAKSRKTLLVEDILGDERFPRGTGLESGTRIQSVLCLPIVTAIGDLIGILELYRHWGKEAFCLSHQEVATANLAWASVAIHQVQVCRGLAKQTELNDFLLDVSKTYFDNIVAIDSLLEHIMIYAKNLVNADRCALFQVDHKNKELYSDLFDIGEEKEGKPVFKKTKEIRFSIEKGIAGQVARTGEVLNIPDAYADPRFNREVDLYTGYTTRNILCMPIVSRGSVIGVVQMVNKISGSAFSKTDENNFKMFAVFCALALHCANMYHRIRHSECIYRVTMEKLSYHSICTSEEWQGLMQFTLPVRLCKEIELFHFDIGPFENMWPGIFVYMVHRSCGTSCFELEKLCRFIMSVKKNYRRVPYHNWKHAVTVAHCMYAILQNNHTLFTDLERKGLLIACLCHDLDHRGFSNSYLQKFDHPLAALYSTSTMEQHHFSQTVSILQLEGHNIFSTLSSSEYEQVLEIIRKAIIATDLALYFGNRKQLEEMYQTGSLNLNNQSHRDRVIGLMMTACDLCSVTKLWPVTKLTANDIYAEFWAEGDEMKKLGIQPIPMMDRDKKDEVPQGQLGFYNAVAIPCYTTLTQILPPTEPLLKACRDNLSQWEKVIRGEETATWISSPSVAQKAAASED

Compound | IC50 [nM]
COc1cc(Oc2nc(-c3ccc(NC(C)=O)cc3)nn3c(C)nc(C)c23)cc(OC)c1OC [Example 2, N-{4-[5,7-Dimethyl-4-(3,4,5-trimethoxyphenoxy)imidazo[5,1-f][1,2,4]triazin-2-yl]-phenyl}acetamide] | 37
COc1cc(Oc2nc(-c3cccc(NC(C)=O)c3)nn3c(C)nc(C)c23)cc(OC)c1OC [Example 9, N-{3-[5,7-Dimethyl-4-(3,4,5-trimethoxyphenoxy)imidazo[5,1-f][1,2,4]triazin-2-yl]-phenyl}acetamide] | 30
COc1cc(Nc2nc(-c3cccc(NS(C)(=O)=O)c3)nn3c(C)nc(C)c23)cc(OC)c1OC [Example 11, N-(3-{5,7-Dimethyl-4-[(3,4,5-trimethoxyphenyl)amino]imidazo[5,1-f][1,2,4]triazin-2-yl}phenyl)methanesulfonamide] | 43

Stronger by IC50, values ahead:

IC50 [nM] | Compound
8 | COc1cc(Nc2nc(-c3ccc(NC=O)cc3)nn3c(C)nc(C)c23)cc(OC)c1OC [Example 12, 4-{5,7-Dimethyl-4-[(3,4,5-trimethoxyphenyl)amino]imidazo[5,1-f][1,2,4]triazin-2-yl}phenylformamide]
6 | COc1cc(Nc2nc(-c3ccc(NC(=O)CO)cc3)nn3c(C)nc(C)c23)cc(OC)c1OC [Example 15, N-(4-{5,7-Dimethyl-4-[(3,4,5-trimethoxyphenyl)amino]imidazo[5,1-f][1,2,4]triazin-2-yl}phenyl)-2-hydroxyacetamide]
